Measurements from US20240279602A1, “METHOD FOR PRODUCING CEREBRAL CORTICAL CELL PREPARATION DERIVED FROM HUMAN PLURIPOTENT STEM CELLS” (Kyoto University, priority 2021, published 2024).

Experiments:
cerebral organoids [1] = assay: Single-cell gene expression analysis of Rosettes organoids with or without DAPT; type: cell-based, human; conditions: Rosettes organoids treated with DAPT for 3 days (DAPT+)
Description: First, to prepare a single-cell suspension from an organoid, the organoid was separated into single cells with dispersing solution for neural cells (FUJIFILM Wako Pure Chemical Corporation) under recommended conditions. The dispersed cells were resuspended in HBSS supplemented with 10% (v/v) KSR and 10 μM Y-27632 (FUJIFILM Wako Pure Chemical Corporation) at a density of 1,000 cells/μL. Into a Chromium Next GEM Chip G (2000177 10X Genomics, Inc.), approximately 4,670 cells were loaded per channel, and treated with a Chromium controller to acquire Gel Beads-in-Emulsion (GEM). Libraries were produced by using Chromium Next GEM Single Cell 3′ Reagent Kits v3.1 (1000121; 10X Genomics, Inc.) in accordance with a protocol from the manufacturer (CG000204 Rev C). The sequences of the libraries were analyzed with Novaseq 6000 (Illumina, Inc.).
Cell Ranger pipeline was used for mapping of sequences in single-cell RNA-seq. GRCh38 human genome sequences were used as reference genome sequences. UMI count values acquired through analysis with a next-generation sequencer were analyzed by using Seurat R package. First, data of organoids were normalized by a Log-Normalize method, and then all the data of organoids were integrated. […]

cerebral organoids [2] = assay: Flow cytometry of marker expression after DAPT treatment; type: cell-based, human
Description: Cerebral organoids, cerebral cortical cell aggregates, and high-purity cerebral cortical cell aggregates were dispersed into single cells by using dispersing solution for neural cells (FUJIFILM Wako Pure Chemical Corporation), fixed by using Fixation Buffer (BD Biosciences) at 4° C. for 30 minutes, then treated with Perm/Wash buffer (BD Biosciences) at room temperature for 15 minutes, subjected to double or triple staining, and analyzed by using an Aria III. The analysis software used was FACSDiva software (BD). The primary antibodies and secondary antibodies used are shown in the following. • PerCP-Cy5.5 Mouse IgGI k isotype control: 550795 (BD Biosciences) Alexa 647 Mouse Anti-human Oct3/4 antigen: 560329 (BD Biosciences) • Tra-2-49/6E-FITC antibody: FCMAB133F (Merck) • Alexa647 mouse anti β-tubulin Class III: 560394 (BD) • PerCP-Cy5.5 Mouse anti-Human Sox1: 561549 (BD) • Alexa647 mouse anti-Human Pax6: 561165(BD) • Alexa488 mouse anti-Ki67: 562249 (BD) • Alexa488 rat anti-Ctip2 antibody: ab123449 (Abcam)
Next, cell aggregates immediately after DAPT treatment (immediately after the completion of step (ii)) were analyzed for the proportions of constituent cells by means of flow cytometry. Cerebral organoids on Day 40 were subjected to DAPT treatment for 3 days, and expressions of marker genes were then analyzed by flow cytometry.
Furthermore, iPS cells on Day 0 (undifferentiated iPS cells), organoids not subjected to DAPT treatment (Ctrl, without step (ii)), organoids subjected to DAPT treatment for 3 days (Day 40 to 43) (DAPT 3d, with step (ii)), and organoids subjected to DAPT treatment for 3 days and subsequently cultured again, as cell aggregates without being dispersed into cells, with a culture medium removed of DAPT for 4 days (DAPT 3d+Release 4d, with step (ii) and step (iv), and without step (iii)) were analyzed by flow cytometry; the results are shown in FIG. 15.
Culture was performed in the same manner as the scheme in FIG. 3 as in Example 1 from −Day 7 to Day 35. A culture medium obtained by adding 5 μM SB431542 to StemFit culture medium without solution C(=bFGF-free culture medium) was used in step (1) in the case of “with preparation for neural differentiation” (with step (1)), and StemFit culture medium was used in the case of “without preparation for neural differentiation” (without step (1)). Thereafter, cerebral cortical cell aggregates were induced by the method described for step (ii) in Example 4, and evaluated by immunostaining. In addition, high-density cerebral cortical cell aggregates were induced by dispersing into single cells and then reaggregating the single cells by the method described for step (iii) and step (iv) in Example 4, and analyzed by flow cytometry.
In the “single-cell DAPT method (DAPT treatment is performed in step (iv))” in FIG. 24(B), cerebral organoids were screened on day 38 after the initiation of induction of differentiation and dispersed into single cells by the method described for step (iii) in Example 4, and the cells were then suspended in a culture medium obtained by adding 10 ng/mL GDNF, 20 ng/mL BDNF, 200 μM ascorbic acid, 400 μM dibutyryl-cAMP, and 30 μM Y-27632 to the culture medium in step (2b) with addition of DAPT at a concentration of 0 μM, 0.1 μM, 1 μM, or 10 μM. Subsequently, the cells were regathered by the method described for step (iv) in Example 4 in the presence of DAPT, and cultured for 1 day, 2 days, or 3 days. Thereafter, the culture medium was switched to a culture medium obtained by adding 10 ng/mL GDNF, 20 ng/mL BDNF, 200 μM ascorbic acid, and 400 μM dibutyryl-cAMP to the culture medium in step (2b), and culture was continued until day 10 after the initiation of reaggregation. The cells on day 3, day 4, or day 10 after the initiation of reaggregation were analyzed by RT-qPCR, and the cells on day 10 were analyzed by flow cytometry; the results are shown in FIGS. 25 to 27. […]

[3] = DAPT 3d+Release 4d: DAPT 3 days, then 4 days in medium removed of DAPT, without dispersion
[4] = single-cell DAPT method (step (iv)), DAPT raised from 0 μM to 10 μM, 3 days treatment, 10 days culture
[5] = week 5 organoids dispersed, 10 μM DAPT 3 days, then DAPT-free culture to 4 days vs 14 days
[6] = without preparation for neural differentiation (without step (1)), DAPT treatment, dispersion and reaggregation

C[C@H](NC(=O)Cc1cc(F)cc(F)c1)C(=O)N[C@H](C(=O)OC(C)(C)C)c1ccccc1 [DAPT, N-[N-(3,5-difluorophenacetyl)-L-alanyl]-S-phenylglycine t-butyl ester]
cell population with expression of Pax6 and MKI67 (cerebral organoids [1]): largely shrunk | proportion of Ki67/Sox1/Pax6-triple-positive cells (cerebral organoids [2]; [3]): 0% | proportion of cells co-positive for Ctip2 and βIII-tubulin (cerebral organoids [2]; [3]): 87.4% | proportion of Pax6-positive/Sox1-positive/Ki67-positive cells (proliferative cells) (cerebral organoids [2]; cerebral organoids on Day 40, DAPT treatment for 3 days (DAPT 3d)): 0.01% | proportion of Ctip2/βIII-tubulin-double-positive cells (cerebral organoids [2]; cerebral organoids on Day 40, DAPT treatment for 3 days (DAPT 3d), all viable cells): 86.1% | proportion of Pax6/Ki67-double-positive neural stem cells (radial glia) (cerebral organoids [2]; cerebral organoids on Day 40, DAPT treatment for 3 days, all viable cells): 1.5% | cells with co-expression of Tra2-49/6E and Oct4 (undifferentiated iPS cell indicator) (cerebral organoids [2]; organoids under any of the conditions (DAPT 3d, DAPT 3d+Release 4d)): not detected | proportion of Ctip2/βTubIII (Tuj1)-double-positive cells (cerebral organoids [2]; [4]): 89.6% | proportion of Pax6-positive/Sox1-positive/Ki67-positive cells (proliferative cells) (cerebral organoids [2]; [4]): 0.8% | proportion of Ctip2/Tuj1-co-positive cells (cerebral organoids [2]; [5]): increase | proportion of Pax6/Ki67-double-positive cells and of Pax6/Ki67/Sox1-triple-positive cells (cerebral organoids [2]; [5]): decreased as the culture period after DAPT treatment was extended | proportion of Ctip2/βTubIII-double-positive cells (cerebral organoids [2]; [6]): 85.9% | proportion of Pax6-positive/Sox1-positive/Ki67-positive cells (proliferative cells) (cerebral organoids [2]; [6]): 0% | proportion of Pax6/Ki67-double-positive neural stem cells (radial glia) (cerebral organoids [2]; [6]): 1.9%
